Assay results published in patent US11643416B2, “Substituted 1′,2′-dihydro-3′H-spiro[cyclohexane-1,4′-pyrimido[5′,4′:4,5]pyrrolo[2,1-c][1,2,4]triazin]-3′-ones as cyclin-dependent kinase inhibitors” (G1 Therapeutics, Inc., priority 2020, dated 2023).
pIC50: −log10 of the molar value.

Each compound was assayed against CDK5 (Homo sapiens (Human), UniProt Q00535) (assay: CDK5 kinase assay (Nanosyn, Caliper microfluidic)). Details: ATP at Km; 12-point dose-response.
Assay type: biochemical
Description: Selected compounds disclosed herein were tested in kinase assays by Nanosyn (Santa Clara, Calif.) to determine their inhibitory effect on these CDKs. The assays were performed using microfluidic kinase detection technology (Caliper Assay Platform). The compounds were tested in 12-point dose-response format in singlicate at Km for ATP.

Chain of CDK5 (Q00535 whole entry): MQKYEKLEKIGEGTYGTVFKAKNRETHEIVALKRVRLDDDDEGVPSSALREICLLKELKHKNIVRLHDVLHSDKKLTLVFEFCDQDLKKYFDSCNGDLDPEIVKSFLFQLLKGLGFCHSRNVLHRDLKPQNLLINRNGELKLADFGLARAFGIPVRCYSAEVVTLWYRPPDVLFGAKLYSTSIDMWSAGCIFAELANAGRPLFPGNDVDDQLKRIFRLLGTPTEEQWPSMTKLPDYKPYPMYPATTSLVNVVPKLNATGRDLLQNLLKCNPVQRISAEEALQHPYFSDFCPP
Chain of CDK5 (Q15078 whole entry partner): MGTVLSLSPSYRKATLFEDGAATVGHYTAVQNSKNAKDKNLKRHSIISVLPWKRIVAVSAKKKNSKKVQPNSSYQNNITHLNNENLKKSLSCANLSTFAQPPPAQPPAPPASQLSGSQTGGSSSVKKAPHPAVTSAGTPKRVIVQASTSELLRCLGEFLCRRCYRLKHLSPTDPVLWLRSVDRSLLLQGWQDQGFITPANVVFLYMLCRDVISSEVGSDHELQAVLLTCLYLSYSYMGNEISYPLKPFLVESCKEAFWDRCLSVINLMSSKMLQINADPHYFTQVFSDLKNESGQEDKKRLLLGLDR

| SMILES | pIC50 |
| --- | --- |
| NS(=O)(=O)c1ccc(Nc2ncc3cc4n(c3n2)C2(CCCCC2)C(=O)NC4O)cc1 (centres unmarked) [Compound 1, 4-((6′-hydroxy-8′-oxo-7′,8′-dihydro-6′H-spiro[cyclohexane-1,9′-pyrazino[1′,2′:1,5]pyrrolo[2,3-d]pyrimidin]-2'-yl)amino)benzenesulfonamide] | 9.17 |
| NS(=O)(=O)c1ccc(Nc2ncc3cc4n(c3n2)C2(CCCCC2)CC(=O)N4)cc1 [Compound 2, 4-((7′-oxo-7′,8′-dihydro-6′H-spiro[cyclohexane-1,9′-pyrrolo[1,5-a:2,3-d′]dipyrimidin]-2′-yl)amino)benzenesulfonamide] | 8.85 |
| NS(=O)(=O)c1ccc(Nc2ncc3cc4n(c3n2)C2(CCCCC2)C(=O)NN4)cc1 [Compound 3, 4-((3′-oxo-2′,3′-dihydro-1′H-spiro[cyclohexane-1,4′-pyrimido[5′,4′:4,5]pyrrolo[2,1-c][1,2,4]triazin]-7′-yl)amino)benzenesulfonamide] | 7.77 |
| NS(=O)(=O)c1ccc(Nc2ncc3cc4n(c3n2)C2(C=NN4)CCCCC2)cc1 [Compound 4, 4-((1′H-spiro[cyclohexane-1,4′-pyrimido[5′,4′:4,5]pyrrolo[2,1-c][1,2,4]triazin]-7′-yl)amino)benzenesulfonamide] | 8.22 |
| CN1N=CC2(CCCCC2)n2c1cc1cnc(Nc3ccc(S(N)(=O)=O)cc3)nc12 [Compound 5, 4-((1′-methyl-1′H-spiro[cyclohexane-1,4′-pyrimido[5′,4′:4,5]pyrrolo[2,1-c][1,2,4]triazin]-7′-yl)amino)benzenesulfonamide] | 7.52 |
| CN1NC(=O)C2(CCCCC2)n2c1cc1cnc(Nc3ccc(S(N)(=O)=O)cc3)nc12 [Compound 12, 4-((1′-methyl-3′-oxo-2′,3′-dihydro-1′H-spiro[cyclohexane-1,4′-pyrimido[5′,4′:4,5]pyrrolo[2,1-c][1,2,4]triazin]-7′-yl)amino)benzenesulfonamide] | 6.92 |
| NS(=O)(=O)c1ccc(Nc2ncc3cc4n(c3n2)C2(CCCCC2)C(=O)N[C@H]4CF)cc1 [Compound 18, (R)-4-((6′-(fluoromethyl)-8′-oxo-7′,8′-dihydro-6′H-spiro[cyclohexane-1,9′-pyrazino[1′,2′:1,5]pyrrolo[2,3-d]pyrimidin]-2′-yl)amino)benzenesulfonamide] | 7.80 |
| C[C@@H]1NC(=O)C2(CCCCC2)n2c1cc1cnc(Nc3ccc(S(N)(=O)=O)cc3)nc12 [Compound 19, (S)-4-((6′-methyl-8′-oxo-7′,8′-dihydro-6′H-spiro[cyclohexane-1,9′-pyrazino[1′,2′:1,5]pyrrolo[2,3-d]pyrimidin]-2′-yl)amino)benzenesulfonamide] | 7.30 |
| NS(=O)(=O)c1ccc(Nc2ncc3cc4n(c3n2)C2(CCCCC2)C(=O)N[C@@H]4CF)cc1 [Compound 23, (S)-4-((6′-(fluoromethyl)-8′-oxo-7′,8′-dihydro-6′H-spiro[cyclohexane-1,9′-pyrazino[1′2′:1,5]pyrrolo[2,3-d]pyrimidin]-2′-yl)amino)benzenesulfonamide] | 7.92 |
| CC1C(=O)Nc2cc3cnc(Nc4ccc(S(N)(=O)=O)cc4)nc3n2C12CCCCC2 (centres unmarked) [Compound 42, 4-((8′-methyl-7′-oxo-7′,8′-dihydro-6′H-spiro[cyclohexane-1,9′-pyrrolo[1,5-a:2,3-d′]dipyrimidin]-2′-yl)amino)benzenesulfonamide] | 8.70 |
| CC1C(=O)N(C)c2cc3cnc(Nc4ccc(S(N)(=O)=O)cc4)nc3n2C12CCCCC2 (centres unmarked) [Compound 43, 4-((6′,8′-dimethyl-7′-oxo-7′,8′-dihydro-6′H-spiro[cyclohexane-1,9′-pyrrolo[1,5-a:2,3-d′]dipyrimidin]-2′-yl)amino)benzenesulfonamide] | 7.82 |
| CC1=NNc2cc3cnc(Nc4ccc(S(N)(=O)=O)cc4)nc3n2C12CCCCC2 [Compound 45, 4-((3′-methyl-1′H-spiro[cyclohexane-1,4′-pyrimido[5′,4′:4,5]pyrrolo[2,1-c][1,2,4]triazin]-7′-yl)amino)benzenesulfonamide] | 7.32 |
| CC1=NN(C)c2cc3cnc(Nc4ccc(S(N)(=O)=O)cc4)nc3n2C12CCCCC2 [Compound 46, 4-((1′,3′-dimethyl-1′H-spiro[cyclohexane-1,4′-pyrimido[5′,4′:4,5]pyrrolo[2,1-c][1,2,4]triazin]-7′-yl)amino)benzenesulfonamide] | 7.96 |
| CN1CCN(S(=O)(=O)c2ccc(Nc3ncc4cc5n(c4n3)C3(CCCCC3)C(=O)NN5)cc2)CC1 [Compound 49, 7′-((4-((4-methylpiperazin-1-yl)sulfonyl)phenyl)amino)-1′,2′-dihydro-3′H-spiro[cyclohexane-1,4′-pyrimido[5′,4′:4,5]pyrrolo[2,1-c][1,2,4]triazin]-3′-one] | 6.98 |
| CN1CCN(S(=O)(=O)c2ccc(Nc3ncc4cc5n(c4n3)C3(CCCCC3)C(=O)NC5O)cc2)CC1 (centres unmarked) [Compound 50, 6′-hydroxy-2′-((4-((4-methylpiperazin-1-yl)sulfonyl)phenyl)amino)-6′,7′-dihydro-8′H-spiro[cyclohexane-1,9′-pyrazino[1′,2′:1,5]pyrrolo[2,3-d]pyrimidin]-8′-one] | 7.15 |
| CN1CCN(S(=O)(=O)c2ccc(Nc3ncc4cc5n(c4n3)C3(CCCCC3)CC(=O)N5)cc2)CC1 [Compound 51, 2′-((4-((4-methylpiperazin-1-yl)sulfonyl)phenyl)amino)-6′H-spiro[cyclohexane-1,9′-pyrrolo[1,5-a:2,3-d′]dipyrimidin]-7′(8′H)-one] | 8.15 |
| CN1CCN(C(=O)c2ccc(Nc3ncc4cc5n(c4n3)C3(CCCCC3)C(=O)NN5)cc2)CC1 [Compound 52, 7′-((4-(4-methylpiperazine-1-carbonyl)phenyl)amino)-1′,2′-dihydro-3′H-spiro[cyclohexane-1,4′-pyrimido[5′,4′:4,5]pyrrolo[2,1-c][1,2,4]triazin]-3′-one] | 7.08 |
| CN1CCN(C(=O)c2ccc(Nc3ncc4cc5n(c4n3)C3(CCCCC3)C(=O)NC5O)cc2)CC1 (centres unmarked) [Compound 53, 6′-hydroxy-2′-((4-(4-methylpiperazine-1-carbonyl)phenyl)amino)-6′,7′-dihydro-8′H-spiro[cyclohexane-1,9′-pyrazino[1′,2′:1,5]pyrrolo[2,3-d]pyrimidin]-8′-one] | 8.40 |
| CN1CCN(C(=O)c2ccc(Nc3ncc4cc5n(c4n3)C3(CCCCC3)CC(=O)N5)cc2)CC1 [Compound 54, 2′-((4-(4-methylpiperazine-1-carbonyl)phenyl)amino)-6′H-spiro[cyclohexane-1,9′-pyrrolo[1,5-a:2,3-d′]dipyrimidin]-7′(8′H)-one] | 8.52 |
| O=C1NCC2(CCCCC2)n2c1cc1cnc(Nc3ccc(C(=O)N4CCNCC4)cc3)nc12 [Compound 55, 2′-((4-(piperazine-1-carbonyl)phenyl)amino)-7′,8′-dihydro-6′H-spiro[cyclohexane-1,9′-pyrazino[1′,2′:1,5]pyrrolo[2,3-d]pyrimidin]-6′-one] | 9.00 |
| CC1C(=O)Nc2cc3cnc(Nc4ccc(S(=O)(=O)N5CCN(C)CC5)cc4)nc3n2C12CCCCC2 (centres unmarked) [Compound 59, 8′-methyl-2′-((4-((4-methylpiperazin-1-yl)sulfonyl)phenyl)amino)-6′H-spiro[cyclohexane-1,9′-pyrrolo[1,5-a:2,3-d′]dipyrimidin]-7′(8′H)-one] | 8.22 |
| O=C(c1ccc(Nc2ncc3cc4n(c3n2)C2(CCCCC2)C(=O)NN4)cc1)N1CCNCC1 [Compound 61, 7′-((4-(piperazine-1-carbonyl)phenyl)amino)-1′,2′-dihydro-3′H-spiro[cyclohexane-1,4′-pyrimido[5′,4′:4,5]pyrrolo[2,1-c][1,2,4]triazin]-3′-one] | 7.14 |
| CN(C)C(=O)c1ccc(Nc2ncc3cc4n(c3n2)C2(CCCCC2)C(=O)NN4)cc1 [Compound 62, N,N-dimethyl-4-((3′-oxo-2′,3′-dihydro-1′H-spiro[cyclohexane-1,4′-pyrimido[5′,4′:4,5]pyrrolo[2,1-c][1,2,4]triazin]-7′-yl)amino)benzamide] | 6.88 |
| NC(=O)c1ccc(Nc2ncc3cc4n(c3n2)C2(CCCCC2)C(=O)NN4)cc1 [Compound 63, 4-((3′-oxo-2′,3′-dihydro-1′H-spiro[cyclohexane-1,4′-pyrimido[5′,4′:4,5]pyrrolo[2,1-c][1,2,4]triazin]-7′-yl)amino)benzamide] | 7.11 |
| CNC(=O)c1ccc(Nc2ncc3cc4n(c3n2)C2(CCCCC2)C(=O)NN4)cc1 [Compound 64, N-methyl-4-((3′-oxo-2′,3′-dihydro-1′H-spiro[cyclohexane-1,4′-pyrimido[5′,4′:4,5]pyrrolo[2,1-c][1,2,4]triazin]-7′-yl)amino)benzamide] | 7.19 |
| O=C(c1ccc(Nc2ncc3cc4n(c3n2)C2(CCCCC2)C(=O)NN4)cc1)N1CCOCC1 [Compound 74, 7′-((4-(morpholine-4-carbonyl)phenyl)amino)-1′,2′-dihydro-3′H-spiro[cyclohexane-1,4′-pyrimido[5′,4′:4,5]pyrrolo[2,1-c][1,2,4]triazin]-3′-one] | 7.04 |
